| Structure (SMILES) | melting point |
| --- | --- |
| COc1ccc(C2NC(=O)c3cc(OC(F)(F)F)cc4c3N2CCC4=NO)cc1 (stereo not drawn) [Example 50, 7-hydroxyimino-3-(4-methoxyphenyl)-9-trifluoromethoxy-6,7-dihydro-3H,5H-pyrido[3,2,1-ij]quinazoline-1(2H)-one] | 232.7 to 234.3 °C |
| COc1ccc(C2NC(=O)c3ccc(Cl)c4c3N2CCC4=NO)cc1 (stereo not drawn) [Example 52, 8-chloro-7-hydroxyimino-3-(4-methoxyphenyl)-6,7-dihydro-3H,5H-pyrido[3,2,1-ij]quinazoline-1(2H)-one] | 132.9 to 133.4 °C |
| CON=C1CCN2c3c(cccc31)C(=O)NC2c1ccc(OCCCN(C)C)cc1 (stereo not drawn) [Example 53, 7-methoxyimino-3-[4-(3-N,N-dimethylaminopropoxy)phenyl]-6,7-dihydro-3H,5H-pyrido[3,2,1-ij]quinazoline-1(2H)-one] | 164.3 to 167 °C |
| COc1cc(C2NC(=O)c3cccc4c3N2CCC4=NO)cc(Br)c1OC (stereo not drawn) [Example 56, 3-(3-bromo-4,5-dimethoxyphenyl)-7-hydroxyimino-6,7-dihydro-3H,5H-pyrido[3,2,1-ij]quinazoline-1(2H)-one] | 133.9 to 146.8 °C |
| CON=C1CCN2c3c(cccc31)C(=O)NC2c1ccc(-n2ccnc2)cc1 (stereo not drawn) [Example 58, 3-[4-(imidazole-1-yl)phenyl]-7-methoxyimino-6,7-dihydro-3H,5H-pyrido[3,2,1-ij]quinazoline-1(2H)-one] | 246.3 °C (dec.) |
| CCOC(=O)COc1ccc(C2NC(=O)c3cccc4c3N2CCC4=NO)cc1 (stereo not drawn) [Example 59, 3-(4-ethoxycarbonylmethoxyphenyl)-7-hydroxyimino-6,7-dihydro-3H,5H-pyrido[3,2,1-ij]quinazoline-1(2H)-one] | 198.6 to 203.3 °C |
| O=C1NC(c2ccc(OCCO)cc2)N2CCC(=NO)c3cccc1c32 (stereo not drawn) [Example 60, 7-hydroxyimino-3-(4-hydroxyethoxyphenyl)-6,7-dihydro-3H,5H-pyrido[3,2,1-ij]quinazoline-1(2H)-one] | 183.9 to 186.3 °C |
| CON=C1CCN2c3c(cccc31)C(=O)NC2c1ccc(C(F)(F)F)cc1 (stereo not drawn) [Example 62, 7-methoxyimino-3-(4-trifluoromethylphenyl)-6,7-dihydro-3H,5H-pyrido[3,2,1-ij]quinazoline-1(2H)-one] | 199.4 to 207.2 °C |
| CON=C1CCN2c3c(cccc31)C(=O)NC2c1cccnc1 (stereo not drawn) [Example 67, 7-methoxyimino-3-(3-pyridyl)-6,7-dihydro-3H,5H-pyrido[3,2,1-ij]quinazoline-1(2H)-one] | 178.6 to 185.9 °C |
| CON=C1CCN2c3c(cccc31)C(=O)NC2Cc1ccc(OC)cc1 (stereo not drawn) [Example 69, 7-methoxyimino-3-(4-methoxyphenyl)methyl-6,7-dihydro-3H,5H-pyrido[3,2,1-ij]quinazoline-1(2H)-one] | 190 to 195.9 °C |
| CON=C1CCN2c3c(cccc31)C(=O)NC2c1ccc([N+](=O)[O-])cc1 (stereo not drawn) [Example 71, 7-methoxyimino-3-(4-nitrophenyl)-6,7-dihydro-3H,5H-pyrido[3,2,1-ij]quinazoline-1(2H)-one] | 112.9 to 116.4 °C |
| O=C1NC(c2ccc([N+](=O)[O-])cc2)N2CCC(=NO)c3cccc1c32 (stereo not drawn) [Example 73, 7-hydroxyimino-3-(4-nitrophenyl)-6,7-dihydro-3H,5H-pyrido[3,2,1-ij]quinazoline-1(2H)-one] | 220 to 224.7 °C |
| N#Cc1ccc(C2NC(=O)c3cccc4c3N2CCC4=NO)cc1 (stereo not drawn) [Example 74, 3-(4-cyanophenyl)-7-hydroxyimino-6,7-dihydro-3H,5H-pyrido[3,2,1-ij]quinazoline-1(2H)-one] | > 250 °C |
| O=C1NC(c2ccc(F)c(F)c2)N2CCC(=NO)c3cccc1c32 (stereo not drawn) [Example 75, 3-(3,4-difluorophenyl)-7-hydroxyimino-6,7-dihydro-3H,5H-pyrido[3,2,1-ij]quinazoline-1(2H)-one] | 218.4 to 222.3 °C |
| O=C1NC(c2ccc(F)cc2)N2CCC(=NO)c3cccc1c32 (stereo not drawn) [Example 76, 3-(4-fluorophenyl)-7-hydroxyimino-6,7-dihydro-3H,5H-pyrido[3,2,1-ij]quinazoline-1(2H)-one] | 247.1 to 252.3 °C |

The next lines start with the values.

| melting point | Structure (SMILES) |
| --- | --- |
| 191.4 to 195.5 °C | COc1ccc2cc(C3NC(=O)c4cccc5c4N3CCC5=O)ccc2c1 (stereo not drawn) [Example 47, 3-(6-methoxynaphthalene-2-yl)-6,7-dihydro-3H,5H-pyrido[3,2,1-ij]quinazoline-1,7(2H)-dione] |
| 198.7 to 202.6 °C | CN(C)c1ccc(C2NC(=O)c3cccc4c3N2CCC4=O)cc1 (stereo not drawn) [Example 48, 3-(4-N,N-dimethylaminophenyl)-6,7-dihydro-3H,5H-pyrido[3,2,1-ij]quinazoline-1,7(2H)-dione] |
| 100.2 to 101.1 °C | COc1ccc(C2NC(=O)c3cccc4c3N2CCC4=O)c(C)c1 (stereo not drawn) [Example 49, 3-(2-methyl-4-methoxyphenyl)-6,7-dihydro-3H,5H-pyrido[3,2,1-ij]quinazoline-1,7(2H)-dione] |
| 200.1 to 202.9 °C | CON=C1CCN2c3c(cc(F)cc31)C(=O)NC2c1ccc(OC)cc1 (stereo not drawn) [Example 51, 9-fluoro-7-methoxyimino-3-(4-methoxyphenyl)-6,7-dihydro-3H,5H-pyrido[3,2,1-ij]quinazoline-1(2H)-one] |
| 218.7 to 221.7 °C | CON=C1CCN2c3c(cccc31)C(=O)NC2c1ccc(OC)c(Br)c1 (stereo not drawn) [Example 54, (3-bromo-4-methoxyphenyl)-7-methoxyimino-6,7-dihydro-3H,5H-pyrido[3,2,1-ij]quinazoline-1(2H)-one] |
| 185.3 to 189.8 °C | CON=C1CCN2c3c(cccc31)C(=O)NC2c1ccc(OC)c(O)c1 (stereo not drawn) [Example 55, 3-(3-hydroxy-4-methoxyphenyl)-7-methoxyimino-6,7-dihydro-3H,5H-pyrido[3,2,1-ij]quinazoline-1(2H)-one] |
| 236 to 243.3 °C | COc1ccc(C2NC(=O)c3cccc4c3N2CCC4=NO)cc1C (stereo not drawn) [Example 57, 7-hydroxyimino-3-(3-methyl-4-methoxyphenyl)-6,7-dihydro-3H,5H-pyrido[3,2,1-ij]quinazoline-1(2H)-one] |
| 174.4 to 189.3 °C | COc1cc(C2NC(=O)c3cccc4c3N2CCC4=NO)ccc1O (stereo not drawn) [Example 61, 7-hydroxyimino-3-(4-hydroxy-3-methoxyphenyl)-6,7-dihydro-3H,5H-pyrido[3,2,1-ij]quinazoline-1(2H)one] |
| 245.4 to 246.6 °C | COc1cc(C2NC(=O)c3cccc4c3N2CCC4=NO)ccc1F (stereo not drawn) [Example 63, 3-(4-fluoro-3-methoxyphenyl)-7-hydroxyimino-6,7-dihydro-3H,5H-pyrido[3,2,1-ij]quinazoline-1(2H)-one] |
| 167.4 to 168.9 °C | CON=C1CCN2c3c(cccc31)C(=O)NC2c1ccc(OC(C)C)cc1 (stereo not drawn) [Example 64, 3-(4-isopropoxyphenyl)-7-methoxyimino-6,7-dihydro-3H,5H-pyrido[3,2,1-ij]quinazoline-1(2H)-one] |
| 220 °C (dec.) | COc1ccc(C2NC(=O)c3cccc4c3N2CCC4=NO)cc1Cl (stereo not drawn) [Example 70, 3-(3-chloro-4-methoxyphenyl)-7-hydroxyimino-3-6,7-dihydro-3H,5H-pyrido[3,2,1-ij]quinazoline-1(2H)-one] |
| 215.4 to 219 °C | Cc1ccc(C2NC(=O)c3cccc4c3N2CCC4=NO)cc1 (stereo not drawn) [Example 77, 7-hydroxyimino-3-(4-methylphenyl)-6,7-dihydro-3H,5H-pyrido[3,2,1-ij]quinazoline-1(2H)-one] |
